Source: ChEMBL document CHEMBL4477252, “Optimization of microtubule affinity regulating kinase (MARK) inhibitors with improved physical properties” (Bioorg Med Chem Lett, 2016)

Experiments:
[1] = target: Interleukin-1 receptor-associated kinase 1 (Homo sapiens, UniProt P51617); assay: Inhibition of recombinant human GST-tagged IRAK1 (194 to 712 residues) catalytic domain expressed in baculovirus expression system by Adapta assay
[2] = target: Vascular endothelial growth factor receptor 2 (Homo sapiens, UniProt P35968); assay: Inhibition of recombinant human His-tagged cytoplasmic KDR expressed in baculovirus expression system by Z'-LYTE assay
[3] = target: Serine/threonine-protein kinase PLK1 (Homo sapiens, UniProt P53350); assay: Inhibition of full-length recombinant human His-tagged PLK1 expressed in baculovirus expression system by Z'-LYTE assay
[4] = target: T1, Serine/threonine-protein kinase Nek2 (Homo sapiens, UniProt P51955); assay: Inhibition of full-length recombinant human His-tagged NEK2 expressed in baculovirus expression system by Z'-LYTE assay
T1 sequence (P51955 whole entry): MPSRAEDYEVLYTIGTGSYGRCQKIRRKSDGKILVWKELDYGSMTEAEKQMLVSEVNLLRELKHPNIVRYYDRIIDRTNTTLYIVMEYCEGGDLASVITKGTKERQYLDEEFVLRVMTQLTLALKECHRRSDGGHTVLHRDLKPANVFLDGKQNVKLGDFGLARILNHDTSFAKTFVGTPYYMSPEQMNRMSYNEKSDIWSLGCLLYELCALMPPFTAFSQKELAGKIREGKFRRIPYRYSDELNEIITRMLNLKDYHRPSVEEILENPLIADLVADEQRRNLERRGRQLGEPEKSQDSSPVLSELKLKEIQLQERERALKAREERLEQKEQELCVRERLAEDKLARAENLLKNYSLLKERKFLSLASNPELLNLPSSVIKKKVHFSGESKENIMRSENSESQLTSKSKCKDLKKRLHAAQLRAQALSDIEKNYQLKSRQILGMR

[5] = target: T2, Receptor-type tyrosine-protein kinase FLT3 (Homo sapiens, UniProt P36888); assay: Inhibition of recombinant human His-tagged cytoplasmic FLT3 expressed in baculovirus expression system by Z'-LYTE assay
T2 sequence (P36888 whole entry): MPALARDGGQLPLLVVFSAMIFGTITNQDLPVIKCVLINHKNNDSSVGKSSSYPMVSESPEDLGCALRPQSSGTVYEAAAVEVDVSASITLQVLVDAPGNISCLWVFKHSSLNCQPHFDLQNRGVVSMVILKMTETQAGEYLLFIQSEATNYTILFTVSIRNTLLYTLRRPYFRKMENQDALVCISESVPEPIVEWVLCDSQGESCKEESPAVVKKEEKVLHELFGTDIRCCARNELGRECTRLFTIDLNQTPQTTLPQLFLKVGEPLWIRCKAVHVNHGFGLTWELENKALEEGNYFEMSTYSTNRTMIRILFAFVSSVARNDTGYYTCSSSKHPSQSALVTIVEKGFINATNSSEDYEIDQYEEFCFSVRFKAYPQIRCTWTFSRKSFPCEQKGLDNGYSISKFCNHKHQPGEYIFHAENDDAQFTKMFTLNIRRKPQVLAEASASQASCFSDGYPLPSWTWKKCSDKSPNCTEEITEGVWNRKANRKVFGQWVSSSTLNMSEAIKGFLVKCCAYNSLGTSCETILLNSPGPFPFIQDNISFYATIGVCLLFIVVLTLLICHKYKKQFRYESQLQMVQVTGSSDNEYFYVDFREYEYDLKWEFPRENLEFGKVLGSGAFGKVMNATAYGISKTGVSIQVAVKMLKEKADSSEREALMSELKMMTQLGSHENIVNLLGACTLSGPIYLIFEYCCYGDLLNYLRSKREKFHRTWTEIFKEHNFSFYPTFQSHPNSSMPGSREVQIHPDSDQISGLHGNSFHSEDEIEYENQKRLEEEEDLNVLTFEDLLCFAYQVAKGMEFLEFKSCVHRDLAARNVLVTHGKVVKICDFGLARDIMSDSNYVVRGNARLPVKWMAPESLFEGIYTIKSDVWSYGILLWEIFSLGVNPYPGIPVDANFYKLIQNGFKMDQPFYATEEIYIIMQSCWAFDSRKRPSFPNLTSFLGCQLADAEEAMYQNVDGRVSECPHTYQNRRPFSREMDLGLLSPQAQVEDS

[6] = target: T3, Dual specificity mitogen-activated protein kinase kinase 6 (Homo sapiens, UniProt P52564); assay: Inhibition of full-length recombinant human His-tagged MAP2K6 expressed in baculovirus expression system by Z'-LYTE assay
T3 sequence (P52564 whole entry): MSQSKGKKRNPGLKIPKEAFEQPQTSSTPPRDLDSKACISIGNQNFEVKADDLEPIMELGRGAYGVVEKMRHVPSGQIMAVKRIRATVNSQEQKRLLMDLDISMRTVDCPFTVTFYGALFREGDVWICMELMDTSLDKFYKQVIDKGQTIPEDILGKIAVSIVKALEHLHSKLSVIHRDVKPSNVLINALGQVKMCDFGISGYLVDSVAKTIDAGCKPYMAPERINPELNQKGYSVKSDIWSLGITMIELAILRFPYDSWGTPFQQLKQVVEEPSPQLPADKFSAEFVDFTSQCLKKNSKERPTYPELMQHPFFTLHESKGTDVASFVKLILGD

[7] = target: Serine/threonine-protein kinase Chk2 (Homo sapiens, UniProt O96017); assay: Inhibition of full-length recombinant human His-tagged CHEK2 expressed in baculovirus expression system by Z'-LYTE assay
[8] = target: Mitogen-activated protein kinase 1 (Homo sapiens, UniProt P28482); assay: Inhibition of full-length recombinant human GST-tagged MAPK1 expressed in Escherichia coli by Z'-LYTE assay
[9] = target: T4, Tyrosine-protein kinase ZAP-70 (Homo sapiens, UniProt P43403); assay: Inhibition of full-length recombinant human His-tagged cytoplasmic ZAP70 expressed in baculovirus expression system by Z'-LYTE assay
T4 sequence (P43403 whole entry): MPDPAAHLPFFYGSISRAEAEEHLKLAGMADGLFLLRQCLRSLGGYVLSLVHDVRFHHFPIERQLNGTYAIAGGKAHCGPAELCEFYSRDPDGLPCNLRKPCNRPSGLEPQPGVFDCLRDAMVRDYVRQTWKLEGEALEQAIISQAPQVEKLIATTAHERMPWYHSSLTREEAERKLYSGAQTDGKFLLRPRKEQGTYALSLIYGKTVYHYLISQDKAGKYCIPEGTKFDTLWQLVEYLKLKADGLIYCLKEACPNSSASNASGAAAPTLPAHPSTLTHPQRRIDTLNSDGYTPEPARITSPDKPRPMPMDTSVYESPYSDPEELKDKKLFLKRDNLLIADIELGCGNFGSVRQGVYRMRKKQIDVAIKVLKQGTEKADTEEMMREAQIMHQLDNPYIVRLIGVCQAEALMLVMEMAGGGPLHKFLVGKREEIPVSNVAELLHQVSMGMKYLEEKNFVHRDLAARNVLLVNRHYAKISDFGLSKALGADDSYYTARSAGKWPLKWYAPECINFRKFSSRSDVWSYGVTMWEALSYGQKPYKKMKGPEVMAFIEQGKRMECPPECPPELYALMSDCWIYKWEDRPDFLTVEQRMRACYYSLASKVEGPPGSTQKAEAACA

Chain of Serine/threonine-protein kinase Chk2 (O96017 whole entry): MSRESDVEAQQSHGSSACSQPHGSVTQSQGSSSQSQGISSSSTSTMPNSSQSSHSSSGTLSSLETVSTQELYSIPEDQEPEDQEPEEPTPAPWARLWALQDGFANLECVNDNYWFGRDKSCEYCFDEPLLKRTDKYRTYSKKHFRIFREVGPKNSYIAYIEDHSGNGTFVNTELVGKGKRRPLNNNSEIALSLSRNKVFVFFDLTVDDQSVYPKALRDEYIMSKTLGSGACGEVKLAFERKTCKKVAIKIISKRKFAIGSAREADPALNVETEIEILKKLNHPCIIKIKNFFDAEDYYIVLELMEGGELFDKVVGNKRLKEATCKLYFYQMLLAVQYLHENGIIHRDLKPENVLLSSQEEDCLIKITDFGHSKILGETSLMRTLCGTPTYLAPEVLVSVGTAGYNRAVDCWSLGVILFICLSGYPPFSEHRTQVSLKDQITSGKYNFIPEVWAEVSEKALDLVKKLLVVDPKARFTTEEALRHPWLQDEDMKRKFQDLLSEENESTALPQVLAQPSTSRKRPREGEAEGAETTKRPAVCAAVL
Chain of Vascular endothelial growth factor receptor 2 (P35968 whole entry): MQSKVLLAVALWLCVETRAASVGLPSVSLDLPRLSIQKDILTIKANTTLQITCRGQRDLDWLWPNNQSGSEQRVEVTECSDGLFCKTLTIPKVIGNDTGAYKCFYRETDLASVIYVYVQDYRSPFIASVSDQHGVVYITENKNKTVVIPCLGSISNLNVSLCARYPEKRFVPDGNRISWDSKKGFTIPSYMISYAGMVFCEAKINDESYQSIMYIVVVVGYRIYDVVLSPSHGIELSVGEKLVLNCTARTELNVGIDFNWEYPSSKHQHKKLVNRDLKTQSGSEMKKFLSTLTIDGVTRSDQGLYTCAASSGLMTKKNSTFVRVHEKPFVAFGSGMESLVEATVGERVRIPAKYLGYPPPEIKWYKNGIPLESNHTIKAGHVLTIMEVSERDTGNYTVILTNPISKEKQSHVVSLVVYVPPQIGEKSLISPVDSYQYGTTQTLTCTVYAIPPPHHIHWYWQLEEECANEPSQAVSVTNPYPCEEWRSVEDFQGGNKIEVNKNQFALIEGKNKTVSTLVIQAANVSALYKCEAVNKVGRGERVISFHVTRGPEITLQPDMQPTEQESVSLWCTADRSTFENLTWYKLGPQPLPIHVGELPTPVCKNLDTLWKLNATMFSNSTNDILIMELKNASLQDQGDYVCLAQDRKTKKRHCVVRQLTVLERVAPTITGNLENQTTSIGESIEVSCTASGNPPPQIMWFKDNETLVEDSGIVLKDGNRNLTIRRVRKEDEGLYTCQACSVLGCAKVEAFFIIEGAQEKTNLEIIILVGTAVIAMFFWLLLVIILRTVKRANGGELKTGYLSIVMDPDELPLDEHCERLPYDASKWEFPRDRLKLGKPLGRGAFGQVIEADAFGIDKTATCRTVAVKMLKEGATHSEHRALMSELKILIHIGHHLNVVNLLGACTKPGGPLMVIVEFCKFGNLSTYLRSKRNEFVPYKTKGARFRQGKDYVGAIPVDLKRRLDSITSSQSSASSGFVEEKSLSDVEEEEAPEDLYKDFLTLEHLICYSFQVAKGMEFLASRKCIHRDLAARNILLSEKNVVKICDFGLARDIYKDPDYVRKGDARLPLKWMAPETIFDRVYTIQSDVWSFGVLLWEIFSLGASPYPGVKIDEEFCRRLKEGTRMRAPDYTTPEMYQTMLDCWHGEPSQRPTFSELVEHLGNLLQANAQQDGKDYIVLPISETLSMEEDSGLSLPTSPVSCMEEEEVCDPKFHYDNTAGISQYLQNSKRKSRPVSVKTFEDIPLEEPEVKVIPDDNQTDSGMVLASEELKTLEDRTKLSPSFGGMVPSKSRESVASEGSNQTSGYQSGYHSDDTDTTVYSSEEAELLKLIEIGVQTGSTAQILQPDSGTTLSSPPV
Chain of Mitogen-activated protein kinase 1 (P28482 whole entry): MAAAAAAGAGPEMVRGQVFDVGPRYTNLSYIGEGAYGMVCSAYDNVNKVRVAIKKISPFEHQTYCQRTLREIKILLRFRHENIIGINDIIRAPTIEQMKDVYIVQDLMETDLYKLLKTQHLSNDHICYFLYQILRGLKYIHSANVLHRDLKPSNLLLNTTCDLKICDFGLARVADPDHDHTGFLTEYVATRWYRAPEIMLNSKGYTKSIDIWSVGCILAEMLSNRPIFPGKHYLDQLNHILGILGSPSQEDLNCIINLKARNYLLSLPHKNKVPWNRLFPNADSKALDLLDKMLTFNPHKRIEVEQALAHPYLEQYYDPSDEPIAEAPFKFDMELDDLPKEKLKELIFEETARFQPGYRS
Chain of Interleukin-1 receptor-associated kinase 1 (P51617 whole entry, the tested form may be a part): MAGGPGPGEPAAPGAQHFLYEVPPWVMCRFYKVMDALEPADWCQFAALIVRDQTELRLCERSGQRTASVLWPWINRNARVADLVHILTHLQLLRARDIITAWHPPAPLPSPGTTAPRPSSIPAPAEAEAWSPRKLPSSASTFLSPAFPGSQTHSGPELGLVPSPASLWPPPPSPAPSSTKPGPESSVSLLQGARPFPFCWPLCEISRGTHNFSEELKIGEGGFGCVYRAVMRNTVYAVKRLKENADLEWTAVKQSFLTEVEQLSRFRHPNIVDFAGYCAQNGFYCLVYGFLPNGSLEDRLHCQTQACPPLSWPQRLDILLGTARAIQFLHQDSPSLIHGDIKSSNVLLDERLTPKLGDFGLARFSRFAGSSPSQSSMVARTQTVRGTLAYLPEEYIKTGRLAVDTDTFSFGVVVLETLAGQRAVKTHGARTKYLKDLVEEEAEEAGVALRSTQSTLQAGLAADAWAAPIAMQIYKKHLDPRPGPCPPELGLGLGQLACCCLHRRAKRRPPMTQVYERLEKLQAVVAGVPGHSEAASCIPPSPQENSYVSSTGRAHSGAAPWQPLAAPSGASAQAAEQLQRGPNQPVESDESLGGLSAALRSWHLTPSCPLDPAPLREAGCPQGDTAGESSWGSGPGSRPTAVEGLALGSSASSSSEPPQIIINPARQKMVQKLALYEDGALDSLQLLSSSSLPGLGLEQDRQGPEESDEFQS
Chain of Serine/threonine-protein kinase PLK1 (P53350 whole entry): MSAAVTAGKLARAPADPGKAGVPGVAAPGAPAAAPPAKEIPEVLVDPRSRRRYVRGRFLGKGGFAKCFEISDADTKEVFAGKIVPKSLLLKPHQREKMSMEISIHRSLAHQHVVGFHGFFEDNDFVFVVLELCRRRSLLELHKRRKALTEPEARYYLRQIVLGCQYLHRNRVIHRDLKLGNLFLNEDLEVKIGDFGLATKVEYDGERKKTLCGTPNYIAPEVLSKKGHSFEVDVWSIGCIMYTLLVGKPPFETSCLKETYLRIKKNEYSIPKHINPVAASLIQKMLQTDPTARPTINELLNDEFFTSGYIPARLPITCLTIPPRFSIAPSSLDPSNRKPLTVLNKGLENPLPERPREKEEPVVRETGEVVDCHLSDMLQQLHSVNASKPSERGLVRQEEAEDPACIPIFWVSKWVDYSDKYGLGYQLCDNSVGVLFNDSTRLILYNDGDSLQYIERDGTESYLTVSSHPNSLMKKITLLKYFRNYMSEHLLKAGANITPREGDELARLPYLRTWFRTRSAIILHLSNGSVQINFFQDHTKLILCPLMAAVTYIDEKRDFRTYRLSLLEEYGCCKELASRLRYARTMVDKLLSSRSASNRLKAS

| Compound | IC50 [1] | IC50 [2] | IC50 [3] | IC50 [4] | IC50 [5] | IC50 [6] | IC50 [7] | IC50 [8] | IC50 [9] |
| --- | --- | --- | --- | --- | --- | --- | --- | --- | --- |
| Cn1cc(-c2cnc3c(-c4csc(C(=O)N[C@@H]5CCCC[C@@H]5N)c4)cnn3c2)cn1 (racemic) | 9 nM | 3.5 nM | > 10000 nM | 950 nM | 1.9 nM | 290 nM | 24 nM | 230 nM | > 10000 nM |
| Cn1cc(-c2cnc3c(-c4csc(C(=O)NCC(F)(F)F)c4)cnn3c2)cn1 | 19 nM | 15 nM | > 100000 nM | > 100000 nM | < 10 nM | 35000 nM | 420 nM | 18000 nM | > 100000 nM |
| Cc1sc(C(=O)N[C@@H]2[C@H](N)CCCC2(F)F)cc1-c1cnn2cc(Cl)cnc12 | 1900 nM | 11000 nM | > 100000 nM | 13000 nM | 580 nM | 3300 nM | 390 nM | 1200 nM | > 100000 nM |
| O=C(NCC(F)(F)F)c1cc(-c2cnn3cc(-c4ccc(OCCN5CCCCC5)cc4)cnc23)cs1 | < 10 nM | < 10 nM | 55000 nM | 16000 nM | < 10 nM | 19000 nM | 450 nM | 12000 nM | > 100000 nM |
